Data reported in patent US8741899B2, “(4-chloro-2-fluoro-N-(2-fluorophenyl)-5-[(8aR)-hexahydropyrrolo-[1,2-a]pyrazin-2(1H)-ylcarbonyl]-benzenesulfonamide, and pharmaceutically acceptable salts thereof” (AbbVie Inc., priority 2009, dated 2014).

Columns and labels:
[1] = target: T1, Human Cav3.2 Channels (Homo sapiens, UniProt O95180); test: Electrophysiologic (whole-cell patch-clamp) assessment of calcium channel activity in HEK293 cells stably expressing hCav3.2; assay type: cell-based; conditions: −77 mV, geometric mean, read-out: Human Cav3.2 −77 mV IC50 (μM) GeoMean
T1 construct: expressed in transfected cells
T1 sequence (O95180 whole entry): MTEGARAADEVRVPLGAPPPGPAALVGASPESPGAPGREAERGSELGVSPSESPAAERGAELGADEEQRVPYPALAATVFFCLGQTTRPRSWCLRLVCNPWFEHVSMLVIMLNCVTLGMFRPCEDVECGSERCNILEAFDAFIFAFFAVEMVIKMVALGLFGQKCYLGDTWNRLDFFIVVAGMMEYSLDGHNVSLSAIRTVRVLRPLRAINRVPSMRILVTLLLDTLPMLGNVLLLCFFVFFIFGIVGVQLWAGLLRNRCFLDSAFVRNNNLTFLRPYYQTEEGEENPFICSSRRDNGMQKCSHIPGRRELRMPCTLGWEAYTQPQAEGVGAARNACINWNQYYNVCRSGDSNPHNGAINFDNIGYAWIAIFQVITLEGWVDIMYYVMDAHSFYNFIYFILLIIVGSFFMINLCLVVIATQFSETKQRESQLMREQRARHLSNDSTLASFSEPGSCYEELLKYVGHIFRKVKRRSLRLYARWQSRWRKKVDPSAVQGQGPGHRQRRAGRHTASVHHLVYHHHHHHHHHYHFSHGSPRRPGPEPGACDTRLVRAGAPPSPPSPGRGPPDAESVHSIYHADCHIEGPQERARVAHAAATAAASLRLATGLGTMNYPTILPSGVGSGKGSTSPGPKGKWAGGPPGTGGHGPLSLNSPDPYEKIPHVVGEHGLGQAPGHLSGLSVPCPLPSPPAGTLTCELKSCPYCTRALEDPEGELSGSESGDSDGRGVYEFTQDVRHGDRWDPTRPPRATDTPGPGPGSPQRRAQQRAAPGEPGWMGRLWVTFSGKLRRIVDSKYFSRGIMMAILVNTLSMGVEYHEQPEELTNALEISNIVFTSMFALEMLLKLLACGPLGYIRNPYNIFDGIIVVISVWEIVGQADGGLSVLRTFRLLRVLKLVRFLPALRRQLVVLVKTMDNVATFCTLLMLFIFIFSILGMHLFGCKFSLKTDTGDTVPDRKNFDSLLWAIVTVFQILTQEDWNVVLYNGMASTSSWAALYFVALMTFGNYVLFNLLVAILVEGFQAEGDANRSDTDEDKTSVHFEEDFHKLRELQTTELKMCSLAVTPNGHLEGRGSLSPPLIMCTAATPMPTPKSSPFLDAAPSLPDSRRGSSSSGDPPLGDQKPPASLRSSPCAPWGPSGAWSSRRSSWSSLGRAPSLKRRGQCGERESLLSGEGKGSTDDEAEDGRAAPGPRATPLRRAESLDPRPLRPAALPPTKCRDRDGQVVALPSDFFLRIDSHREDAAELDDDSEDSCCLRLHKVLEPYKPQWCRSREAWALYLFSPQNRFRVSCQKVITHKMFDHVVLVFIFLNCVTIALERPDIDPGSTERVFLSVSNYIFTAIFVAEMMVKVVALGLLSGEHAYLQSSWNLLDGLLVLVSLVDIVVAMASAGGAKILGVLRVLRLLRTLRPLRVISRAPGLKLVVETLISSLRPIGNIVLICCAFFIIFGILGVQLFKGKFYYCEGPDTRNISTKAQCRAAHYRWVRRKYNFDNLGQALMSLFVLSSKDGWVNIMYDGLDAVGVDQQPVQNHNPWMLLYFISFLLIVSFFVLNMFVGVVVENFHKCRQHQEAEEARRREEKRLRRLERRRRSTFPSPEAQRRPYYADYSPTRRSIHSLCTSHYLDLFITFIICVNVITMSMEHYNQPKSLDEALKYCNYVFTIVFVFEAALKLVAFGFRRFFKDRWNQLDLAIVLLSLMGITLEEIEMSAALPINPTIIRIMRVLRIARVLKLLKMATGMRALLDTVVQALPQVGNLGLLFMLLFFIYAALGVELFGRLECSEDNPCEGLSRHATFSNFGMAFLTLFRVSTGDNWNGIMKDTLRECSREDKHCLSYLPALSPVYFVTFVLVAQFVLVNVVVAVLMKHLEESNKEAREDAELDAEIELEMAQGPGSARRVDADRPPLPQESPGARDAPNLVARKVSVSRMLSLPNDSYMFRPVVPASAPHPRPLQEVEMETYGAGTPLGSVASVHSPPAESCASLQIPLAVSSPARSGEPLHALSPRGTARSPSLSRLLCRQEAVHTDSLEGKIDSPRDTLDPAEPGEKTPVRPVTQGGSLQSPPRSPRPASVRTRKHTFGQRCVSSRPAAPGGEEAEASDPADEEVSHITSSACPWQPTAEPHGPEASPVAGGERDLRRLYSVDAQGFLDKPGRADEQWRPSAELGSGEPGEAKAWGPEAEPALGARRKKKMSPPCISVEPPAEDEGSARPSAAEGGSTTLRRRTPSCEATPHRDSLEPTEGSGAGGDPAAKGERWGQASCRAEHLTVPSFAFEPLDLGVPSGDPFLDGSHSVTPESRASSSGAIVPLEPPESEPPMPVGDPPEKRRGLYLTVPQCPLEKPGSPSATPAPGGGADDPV
How it was run: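 HEK293 cells stably expressing hCav3.2, whole-cell patch clamp; external 5 mM CaCl2 with CsCl/TEA-Cl, pH 7.2; Cs-based internal with 4 mM Mg2ATP. Two-pulse protocol: 8 s prepulse at −100 mV or ~−75 mV, then test pulse to −30 mV. Cumulative antagonist additions, 5 min each; responses normalized to DMSO vehicle.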

[2] = tested on: Sprague Dawley rats; test: Capsaicin induced secondary mechanical hyperalgesia model; assay type: in vivo; conditions: rat, 60 minutes before testing, secondary mechanical hyperalgesia 180 minutes after capsaicin, von Frey filaments
Experimental: (ii) In Vivo Data—Capsaicin Induced Secondary Mechanical Hyperalgesia Model:
Sprague Dawley rats were briefly restrained, and capsaicin was administered at 10 μg in 10 μL of vehicle by intraplantar injection into the center of the right hind paw. Secondary mechanical hyperalgesia (SMH) was measured at the heel away from the site of injection 180 minutes following capsaicin exposure. Compounds and gabapentin (positive control), were administered p.o. 60 minutes before testing (2 hours after capsaicin) or i.p. 30 minutes before testing (2.5 hours after capsaicin). SMH was measured using calibrated von Frey filaments (Stoelting, Woodale, Ill.). Following the 1 hour habituation in the testing room, rats were moved to individual plexiglass chambers that sit on top of a wire mesh to allow for access for stimulation of the plantar surface of the hind paws. Rats were allowed to acclimate to the new chambers for 15 minutes before the onset of testing. The paw withdrawal threshold was determined by increasing and decreasing stimulus intensity (force: g) and calculated using Dixon's up-down method (Chaplan, S. R.; Bach, F. W.; Pogrel, J. W.; Chung, J. M.; Yaksh, T. L.; Quantitative assessment of tactile allodynia in the rat paw. J. Neuroscience Methods 1994, 53(1), 55-63). The filaments (maximum force of 15.0 g) were held in place for 8 seconds or until there was a withdrawal response from the mechanical stimulation.

| Compound | IC50 [1] [µM] | Inhibition to Pain Response, % inhibition @ 30 mg/kg p.o. [2] [%] |
| --- | --- | --- |
| O=C(c1cccc(S(=O)(=O)Nc2ccc(C(F)(F)F)cc2)c1)N1CCN2CCCCC2C1 (stereo not drawn) [Example 37, 3-(octahydro-2H-pyrido[1,2-a]pyrazin-2-ylcarbonyl)-N-[4-(trifluoromethyl)phenyl]benzenesulfonamide] | 1.1 | 63 |
| O=C(c1cccc(S(=O)(=O)Nc2cccc(F)c2)c1)N1CCN2CCC[C@H]2C1 [Example 3, N-(3-fluorophenyl)-3-[(8aS)-hexahydropyrrolo[1,2-a]pyrazin-2(1H)-ylcarbonyl]benzenesulfonamide] | 5.9 | 44 |
| O=C(c1cc(S(=O)(=O)Nc2ccccc2F)c(F)cc1Cl)N1CCN2CCC[C@@H]2C1 [Example 20, 4-chloro-2-fluoro-N-(2-fluorophenyl)-5-[(8aR)-hexahydropyrrolo[1,2-a]pyrazin-2(1H)-ylcarbonyl]benzenesulfonamide] | 6 | 43 |
| O=C(c1cc(S(=O)(=O)Nc2ccccc2F)c(Cl)cc1Cl)N1CCN2CCC[C@@H]2C1 [Example 64, 2,4-dichloro-N-(2-fluorophenyl)-5-[(8aR)-hexahydropyrrolo[1,2-a]pyrazin-2(1H)-ylcarbonyl]benzenesulfonamide] | 1.7 | 57 |

Further compounds by falling IC50 [1], results first:

| IC50 [1] [µM] | Compound | Inhibition to Pain Response, % inhibition @ 30 mg/kg p.o. [2] [%] |
| --- | --- | --- |
| 10.6 | O=C(c1cccc(S(=O)(=O)Nc2ccccc2F)c1)N1CCN2CCC[C@@H]2C1 [Example 2, N-(2-fluorophenyl)-3-[(8aR)-hexahydropyrrolo[1,2-a]pyrazin-2(1H)-ylcarbonyl]benzenesulfonamide] | 58 |
| 5.6 | O=C(c1cccc(S(=O)(=O)Nc2c(F)cccc2F)c1)N1CCN2CCC[C@@H]2C1 [Example 13, N-(2,6-difluorophenyl)-3-[(8aR)-hexahydropyrrolo[1,2-a]pyrazin-2(1H)-ylcarbonyl]benzenesulfonamide] | 37 |
